In patent US11518760B2 (Liverpool School of Tropical Medicine, priority 2017, dated 2022):
Where two headings read alike, the source gives them in different places.

System: C6/36 Aedes albopictus cell line infected with Wolbachia pipientis (Wolbachia strain wAlbB)
Assay: In vitro insect cell line assay (anti-Wolbachia screen, SYTO 11 high content imaging)
Assay type: cell-based
Conditions: read-out: In vitro anti-Wolbachia activity
Procedure: A C6/36 Aedes albopictus cell line infected with Wolbachia pipientis (Wolbachia strain wAlbB) derived from Aa23 A. albopictus cell line (O'Neill et al., 1997; Insect Mol Biol; Turner et al., (2006) J. Immunol. 7:1240-1249) was used to screen compounds. Cells were cultured in Leibovitz's L15+L-glutamine supplemented with heat-inactivated Foetal Calf Serum (HI-FCS), non-essential amino acids and tryptose phosphate broth. Culture medium was filter-sterilized through a 0.2 μm filter and stored at 4° C. Compounds were provided as 10 mM stocks in DMSO, diluted to 50 μM working stock to give final concentration of 5 μM on the test plate. Concentrated stocks were frozen at −20° C.
Prior to use in the screening assay, cell cultures were sub-passaged (6 days prior) to provide ˜90% confluent cells on Day 0 of screening assay. On Day 0 (assay set-up), the medium was removed from the stock culture flask and replaced with fresh medium. The cells were detached by scraping and cell density was calculated using an automated cell counter. The cells were then diluted at working density and aliquoted at 90 μl to each well of a Cell Carrier 384 well plate (Perkin Elmer). Cell plates were incubated at 26° C.
Control solution (DMSO-medium) was dispensed at 10 μl per well for “untreated” wells. Test solution (Drug-DMSO) was also dispensed at 10 μl (from working plate) per well for “treated” wells. The plates were incubated at 26° C., inside plastic wallet in incubator, for 7 days.
On Day 7, 25 μl of staining medium/dye (SYTO 11, Life Technologies) was added to each sample well and allowed to stain for 15 minutes in the dark. All the medium was removed from each sample well without disturbing the cells and replaced with 100 μl of fresh medium. Plates were imaged on the Operetta High Content Imaging system (Perkin Elmer) and analyzed using texture analysis through Harmony software (Perkin Elmer). The cell-based screen and analysis are described in detail in Clare et al. (2014) J Biomol Screen.

[1] = C6/36 Aedes albopictus cells infected with Wolbachia pipientis wAlbB, 7 days incubation, SYTO 11 imaging
[2] = 168 h, C6/36 Aedes albopictus cells infected with Wolbachia pipientis wAlbB, 7 days incubation, SYTO 11 imaging

“2-((3,3-difluoropyrrolidin-1-yl)methyl)-N-((2-(trifluoromethyl)pyridin-3-yl)methyl)pyrido[2,3-d]pyrimidin-4-amine [Example 225]” was tested, and the EC50 [1] was 1000 to 100000 nM.

Work on “2-((3R)-3,5-dimethylmorpholino)-N-(2-(trifluoromethyl)benzyl)pyrido[2,3-d]pyrimidin-4-amine [Example 302]” yielded an EC50 [1] of less than 0.01 nM.

Work on `Cc1cc2ncnc(N(C)C(C)c3ccccc3C(F)(F)F)c2s1` (centres unmarked) [Example 1] yielded an EC50 (C6/36, 168 h) of 1000 to 100000 nM.

`Fc1ccccc1CNc1nc(Cl)nc2ccsc12` [Example 10] was tested, and the EC50 [2] was 1000 to 100000 nM.

Work on `CC(C)Nc1nc(NCc2ccccc2F)c2sccc2n1` [Example 11] yielded an EC50 [2] of 100 to 1000 nM.

`CC(C)Nc1nc(NCc2ccccc2)c2sccc2n1` [Example 12, N^4-benzyl-N^2-isopropylthieno[3,2-d]pyrimidine-2,4-diamine] gave an EC50 [2] of 1000 to 100000 nM.

`CC(C)Nc1nc(NCc2cccc(F)c2)c2sccc2n1` [Example 14, N^4-(3-fluorobenzyl)-N^2-isopropylthieno[3,2-d]pyrimidine-2,4-diamine] was tested, and the EC50 [2] was 100 to 1000 nM.

`CC(C)Nc1nc(NCc2ccc(F)cc2)c2sccc2n1` [Example 15, N^4-(4-fluorobenzyl)-N^2-isopropylthieno[3,2-d]pyrimidine-2,4-diamine] gave an EC50 [2] of 100 to 1000 nM.

For `COc1cccc(CNc2nc(NC(C)C)nc3ccsc23)c1` [Example 16, N^2-isopropyl-N^4-(3-methoxybenzyl)thieno[3,2-d]pyrimidine-2,4-diamine], the EC50 [2] was 1000 to 100000 nM.

`CC(C)Nc1nc(NCc2ccccc2Cl)c2sccc2n1` [Example 17, N^4-(2-chlorobenzyl)-N^2-isopropylthieno[3,2-d]pyrimidine-2,4-diamine] showed an EC50 [2] of 10 to 100 nM.

For `CC(C)Nc1nc(NCc2cccc(Cl)c2)c2sccc2n1` [Example 18, N^4-(3-chlorobenzyl)-N^2-isopropyithieno[3,2-d]pyrimidine-2,4-diamine], the EC50 [2] was 1000 to 100000 nM.

Work on `CC(C)Nc1nc(NCc2ccc(Cl)cc2)c2sccc2n1` [Example 19, N^4-(4-chlorobenzyl)-N^2-isopropylthieno[3,2-d]pyrimidine-2,4-diamine] yielded an EC50 [2] of 1000 to 100000 nM.

In the case of `Clc1nc(NCc2ccccc2Cl)c2sccc2n1` [Example 21, 2-chloro-N-(2-chlorobenzyl)thieno[3,2-d]pyrimidin-4-amine], the EC50 [2] is reported as 10 to 100 nM.

Molecule `Fc1ccccc1CNc1ncnc2ccsc12` [Example 22, N-(2-fluorobenzyl)thieno[3,2-d]pyrimidin-4-amine] has an EC50 [2] of 1000 to 100000 nM.

`FC(F)(F)c1ccccc1CNc1ncnc2ccsc12` [Example 23, N-(2-(trifluoromethyl)benzyl)thieno[3,2-d]pyrimidin-4-amine] showed an EC50 [2] of 10 to 100 nM.

For `FC(F)(F)Oc1ccccc1CNc1ncnc2ccsc12` [Example 24, N-(2-(trifluoromethoxy)benzyl)thieno[3,2-d]pyrimidin-4-amine], the EC50 [2] was 100 to 1000 nM.

For `COc1cccc(CNc2nc(NC(C)C)nc3ccsc23)c1F` [Example 26, N^4-(2-fluoro-3-methoxybenzyl)-N^2-isopropylthieno[3,2-d]pyrimidine-2,4-diamine], the EC50 [2] was 100 to 1000 nM.

With `CC(C)Nc1nc(NCc2c(Cl)cccc2Cl)c2sccc2n1` [Example 27, N^4-(2,6-dichlorobenzyl)-N-isopropylthieno[3,2-d]pyrimidine-2,4-diamine] the EC50 [2] was 1000 to 100000 nM.

Work on `CC(C)Nc1nc(NCc2ccccc2C(F)(F)F)c2sccc2n1` [Example 28, N^2-isopropyl-N^4-(2-(trifluoromethyl)benzyl)thieno[3,2-d]pyrimidine-2,4-diamine] yielded an EC50 [2] of 10 to 100 nM.

`CC(C)Nc1nc(NCc2c(F)cccc2Cl)c2sccc2n1` [Example 30, N^4-(2-chloro-6-fluorobenzyl)-N^2-isopropylthieno[3,2-d]pyrimidine-2,4-diamine] gave an EC50 [2] of 100 to 1000 nM.

In the case of `Cc1ccc(Nc2ncnc3ccsc23)c(C)c1` [Example 31, N-(2,4-dimethylphenyl)thieno[3,2-d]pyrimidin-4-amine], the EC50 [2] is reported as 1000 to 100000 nM.

Molecule `Cc1ccc(Nc2nc(NC(C)C)nc3ccsc23)c(C)c1` [Example 32, N^4-(2,4-dimethylphenyl)-N^2-isopropylthieno[3,2-d]pyrimidine-2,4-diamine] has an EC50 [2] of 1000 to 100000 nM.

Work on `CC(C)N(C)c1nc(NCc2ccccc2Cl)c2sccc2n1` [Example 33, N^4-(2-chlorobenzyl)-N^2-isopropyl-N^2-methylthieno[3,2-d]pyrimidine-2,4-diamine] yielded an EC50 [2] of 100 to 1000 nM.

Molecule `O=C1CCCN1CCCNc1ncnc2ccsc12` [Example 34, 1-(3-(thieno[3,2-d]pyrimidin-4-ylamino)propyl)pyrrolidin-2-one] has an EC50 [2] of 1000 to 100000 nM.

For `COc1ccccc1CNc1nc(NCCCN2CCCC2=O)c2sccc2n1` [Example 35, 1-(3-((2-((2-methoxybenzyl)amino)thieno[3,2-d]pyrimidin-4-yl)amino)propyl)pyrrolidin-2-one], the EC50 [2] was 100 to 1000 nM.

With `CN(Cc1ccccc1)c1nc(NCCCN2CCCC2=O)c2sccc2n1` [Example 36, 1-(3-((2-(benzyl(methyl)amino)thieno[3,2-d]pyrimidin-4-yl)amino)propyl)pyrrolidin-2-one] the EC50 [2] was 1000 to 100000 nM.

`O=C(Nc1ncnc2ccsc12)c1ccccc1C(F)(F)F` [Example 37, N-(thieno[3,2-d]pyrimidin-4-yl)-2-(trifluoromethyl)benzamide] gave an EC50 [2] of 1000 to 100000 nM.

For `CC(Nc1ncnc2ccsc12)c1ccccc1Cl` (centres unmarked) [Example 38, N-(1-(2-chlorophenyl)ethyl)thieno[3,2-d]pyrimidin-4-amine], the EC50 [2] was 1000 to 100000 nM.

For `CCN(CC)c1ncnc2ccsc12` [Example 39], the EC50 [2] was 1000 to 100000 nM.

Work on `O=C(Nc1ncnc2ccsc12)c1ccccc1Cl` [Example 40, 2-chloro-N-(thieno[3,2-d]pyrimidin-4-yl)benzamide] yielded an EC50 [2] of 1000 to 100000 nM.

`CC(C)(C)Nc1nc(NCc2ccccc2C(F)(F)F)c2sccc2n1` [Example 41, N^2-(tert-butyl)-N^4-(2-(trifluoromethyl)benzyl)thieno[3,2-d]pyrimidine-2,4-diamine] was tested, and the EC50 [2] was 10 to 100 nM.

With `FC(F)(F)CNc1nc(NCc2ccccc2C(F)(F)F)c2sccc2n1` [Example 42, N^2-(2,2,2-trifluoroethyl)-N^4-(2-(trifluoromethyl)benzyl)thieno[3,2-d]pyrimidine-2,4-diamine] the EC50 [2] was 100 to 1000 nM.

In the case of `FC(F)(F)c1ccccc1CNc1nc(NC2CC2)nc2ccsc12` [Example 43, N^2-cyclopropyl-N^4-(2-(trifluoromethyl)benzyl)thieno[3,2-d]pyrimidine-2,4-diamine], the EC50 [2] is reported as 100 to 1000 nM.

Molecule `CN(Cc1ccccc1C(F)(F)F)c1ncnc2ccsc12` [Example 44, N-methyl-N-(2-(trifluoromethyl)benzyl)thieno[3,2-d]pyrimidin-4-amine] has an EC50 [2] of 10 to 100 nM.

`CC(C)Nc1nc(NCCc2ccccc2C(F)(F)F)c2sccc2n1` [Example 45, N^2-isopropyl-N^4-(2-(trifluoromethyl)phenethyl)thieno(3,2-d]pyrimidine-2,4-diamine] was tested, and the EC50 [2] was 100 to 1000 nM.

Work on `FC(F)(F)c1ccccc1CNc1nc(Cl)nc2ccsc12` [Example 46, 2-chloro-N-(2-(trifluoromethyl)benzyl)thieno[3,2-d]pyrimidin-4-amine] yielded an EC50 [2] of 10 to 100 nM.

Work on `Clc1nc(NC2(c3ccccc3Cl)CC2)c2sccc2n1` [Example 47, 2-chloro-N-(1-(2-chlorophenyl)cyclopropyl)thieno[3,2-d]pyrimidine-4-diamine] yielded an EC50 [2] of 1000 to 100000 nM.

`CC(C)Nc1nc(NC2(c3ccccc3Cl)CC2)c2sccc2n1` [Example 48, N^4-(1-(2-chlorophenyl)cyclopropyl)-N^2-isopropylthieno[3,2-d]pyrimidine-2,4-diamine] gave an EC50 [2] of 100 to 1000 nM.
